From PubChem BioAssay AID743151 (Broad Institute, 2013) come the findings set out here.

In general, IC50 refers to the concentration that gives 50% inhibition.

Assay in all cases: viability loss in TP53-mutant tumour panel – cell-based, HeLa, COLO741, H2122, CellTiter-Glo, dry powder, dose response (AID 743151)
On the technique in general: Cellular ATP, detected with luciferase, serves as a proxy for viable cell number.

Assay [1] concerns HeLa TP53-mutant viability, CellTiter-Glo, 48 h.
The test system of assay [2] is H2122 TP53-mutant viability, CellTiter-Glo, 48 h. As to conditions: measured here: H2122 viability IC50.
The subject of assay [3] is COLO741 TP53-mutant viability, CellTiter-Glo, 48 h. As to conditions: measured here: COLO741 viability IC50.

Active and inactive are the calls of the source.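 The calls were made as follows: active = IC50 under 100 nM in each of the cell lines carrying a mutated TP53 gene; inactive = the rest.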 Bounds are passed on as bounds.

As to `C[C@@H]1CC(=O)NN=C1c1ccc(C2CCCCC2)cc1`, the results for the IC50 in assay [1], in assay [2] and in assay [3] were 7.27 nM, 28.7 nM and 11.3 nM, respectively.
For `C[C@@H]1CC(=O)NN=C1c1ccc(F)c(F)c1`, the IC50 in assay [1] was 22.4 nM; in assay [2], 46.2 nM; in assay [3], 33.3 nM.
On to `O=C1CN2Cc3c(ccc(Cl)c3Cl)N=C2N1`, for which the figures for the IC50 in assay [1], in assay [2] and in assay [3] were 7.65 nM, 17.1 nM and 12 nM, respectively.
The corresponding values for `C[C@H]1CC(=O)NN=C1c1ccc(N2CCOCC2)c(F)c1` are > 10000 nM (inactive), greater than 10000 nM and greater than 10000 nM.
With `C[C@@H]1CC(=O)NN=C1c1ccc(Cl)cc1`, the values for the IC50 in assay [1], in assay [2] and in assay [3] were 32.7 nM, 79.9 nM and 42.6 nM, respectively.
The corresponding values for `CC(=O)Nc1ccc(C2=NNC(=O)C[C@H]2C)cc1` are 4.93 nM, 12.7 nM and 7.65 nM.
The corresponding values for `C[C@@H]1CC(=O)NN=C1c1ccc(-c2cncnc2)cc1` are 12.5 nM, 36.5 nM and 19.6 nM.
Regarding `C[C@@H]1CC(=O)NN=C1c1ccc(N2CCOCC2)cc1`, the 50% inhibitory concentration (IC50) in assay [1] was 13.2 nM; in assay [2] it was 30 nM; in assay [3], 20 nM.
Regarding `CCN1N=C(c2ccc(N(CC)CC)cc2)[C@H](C)CC1=O`, the values for the IC50 in assay [1], in assay [2] and in assay [3] were > 10000 nM (inactive), greater than 10000 nM and greater than 10000 nM, respectively.
As for `COc1cc2c(cc1OC)-c1cc(=Nc3c(C)cc(C)cc3C)n(C)c(=O)n1CC2`, the IC50 is > 10000 nM (inactive) in assay [1], greater than 10000 nM in assay [2] and greater than 10000 nM in assay [3].
On to `CCN(CC)c1ccc(C2=NNC(=O)CC2C)cc1[N+](=O)[O-]` (stereo unspecified), for which the IC50 in assay [1] was 6.65 nM; in assay [2], 13.4 nM; in assay [3], 12 nM.
For `C[C@@H]1CC(=O)NN=C1c1ccc(N2CCOCC2)c(F)c1`, the IC50 in assay [1] was 1.59 nM; in assay [2], 3.17 nM; in assay [3], 2.88 nM.
